Experimental findings from patent US7820379B2, “Process for high throughput screening of CpG-based immuno-agonist/antagonist” (Coley Pharmaceutical GmbH, priority 2000, dated 2010) are described below.

pEC50: −log10 of the molar value.

Holding throughout (type): cell-based
In one data set the target is T1, murine TLR9 (Mus musculus, UniProt Q9EQU3, L378S/Q579H/T325N/T573A/T867A).
T1 construct: additional primers were designed for amplification of the complete mouse TLR9 cDNA; expressed in transfected cells
T1 sequence (Q9EQU3 26-1032 T325N/L378S/T573A/Q579H/T867A): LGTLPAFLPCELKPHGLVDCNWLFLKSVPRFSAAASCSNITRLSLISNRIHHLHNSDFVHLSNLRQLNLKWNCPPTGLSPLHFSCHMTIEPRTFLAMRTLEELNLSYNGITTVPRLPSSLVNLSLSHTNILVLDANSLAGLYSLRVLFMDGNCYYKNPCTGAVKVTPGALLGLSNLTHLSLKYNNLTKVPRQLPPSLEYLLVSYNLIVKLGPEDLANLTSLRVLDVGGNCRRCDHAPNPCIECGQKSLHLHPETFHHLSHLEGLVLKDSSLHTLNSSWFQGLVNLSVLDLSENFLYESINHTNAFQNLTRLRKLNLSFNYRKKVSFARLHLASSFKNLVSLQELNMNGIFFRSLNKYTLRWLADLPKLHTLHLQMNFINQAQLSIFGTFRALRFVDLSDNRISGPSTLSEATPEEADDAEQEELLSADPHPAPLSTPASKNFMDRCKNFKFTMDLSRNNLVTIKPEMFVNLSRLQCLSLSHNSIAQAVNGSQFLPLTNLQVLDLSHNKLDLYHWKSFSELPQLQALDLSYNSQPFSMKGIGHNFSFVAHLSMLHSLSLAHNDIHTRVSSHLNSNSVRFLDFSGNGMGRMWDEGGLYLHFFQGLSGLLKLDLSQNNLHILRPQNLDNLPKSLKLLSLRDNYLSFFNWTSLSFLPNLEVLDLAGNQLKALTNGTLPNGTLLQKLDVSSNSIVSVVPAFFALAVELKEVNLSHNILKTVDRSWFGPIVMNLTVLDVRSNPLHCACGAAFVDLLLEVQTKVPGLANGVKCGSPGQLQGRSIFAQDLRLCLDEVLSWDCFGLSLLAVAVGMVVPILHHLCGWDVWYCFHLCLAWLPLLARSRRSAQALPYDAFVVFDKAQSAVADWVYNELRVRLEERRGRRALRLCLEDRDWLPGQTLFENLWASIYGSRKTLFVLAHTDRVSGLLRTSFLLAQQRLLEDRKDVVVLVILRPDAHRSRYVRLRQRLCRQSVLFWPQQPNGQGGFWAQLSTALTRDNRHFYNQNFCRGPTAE
Nature of the data set: NF-κB-luciferase activation in 293 cells transfected with murine TLR9 (293-mTLR9-luc). The note with it: for pEC50: ODN concentration of half-maximal activation, 293-mTLR9-luc cells, NF-κB-driven luciferase readout, 12 hours, read-out: 293-mTLR9 Kac. The source says:
Human fibroblast 293 cells were transiently transfected with mTLR9 and the NF-κB-luc construct (FIG. 2). Similar data was obtained for IL-8 production (not shown). Thus expression of TLR9 (human or mouse) in 293 cells results in a gain of function for CpG-DNA stimulation similar to hTLR4 reconstitution of LPS responses.
To generate stable clones expressing human TLR9, murine TLR9, or either TLR9 with the NF-κB-luc reporter plasmid, 293 cells were transfected in 10 cm plates (2×10^6 cells/plate) with 16 μg of DNA and selected with 0.7 mg/ml G418 (PAA Laboratories GmbH, Cölbe, Germany). The clones were also screened for IL-8 production or NF-κB-luciferase activity after stimulation with ODN. Four different types of clones were generated. • 293-hTLR9-luc: expressing human TLR9 and 6-fold NF-κB-luciferase reporter • 293-mTLR9-luc: expressing murine TLR9 and 6-fold NF-κB-luciferase reporter • 293-hTLR9: expressing human TLR9 • 293-mTLR9: expressing murine TLR9
Similar results were obtained utilizing IL-8 production with the stable clone 293-hTLR9. 293-mTLR9-luc were also stimulated with CpG-ODN (1668, 2 μM; […], SEQ ID NO:84), GpC-ODN (1668-GC, 2 μM; […], SEQ ID NO:85), Me-CpG-ODN (1668 methylated, 2 μM; TCCATGAZGTTCCTGATGCT, Z=5-methylcytidine, SEQ ID NO:207), LPS (100 ng/ml) or media, as measured by monitoring NF-κB activation (FIG. 5). Similar results were obtained utilizing IL-8 production with the stable clone 293-mTLR9. Results are representative of at least two independent experiments. […] These cells can be used for screening of optimal ligands for innate immune responses driven by TLR9 in multiple species.
Because stable TLR9 transfectants mirrored primary cell responsiveness to CpG-DNA (FIGS. 4 and 5), it was hypothesized that stable transfectants could potentially discern species-specific CpG-motifs through TLR9 receptors. Therefore 293-hTLR9-luc (expressing human TLR9 and 6-fold NF-κB-luc reporter), 293-mTLR9-luc (expressing murine TLR9 and 6-fold NF-κB-luc reporter), 293-hTLR9 (expressing human TLR9) and 293-mTLR9 (expressing murine TLR9) clones were tested for CpG-DNA motif responsiveness. […] Depicted are both NF-κB-driven luciferase and IL-8 production as readout. […] After lysis of the cells luciferase can be detected photometrically based on an enzymatic reaction by luciferase which creates photons. IL-8 production was monitored using enzyme-linked immunosorbent assay (ELISA). […] Results shown in FIG. 11 are representative of three independent experiments. Strikingly, CpG-motif sequence specificity was conferred in a species-specific manner by TLR9. Additionally, the half-maximal concentration for either 2006 or 1668 appears nearly the same as those determined on primary cells (compare FIG. 10 and FIG. 11).
(§1) Although 2006 and 1668 are discussed in terms of CpG-motif differences, they are very different in several aspects (see Table 5 for comparison). The lengths are different, 24 versus 20 nucleotides, and 2006 has four CG dinucleotides compared to one in 1668. Additional differences are the CG position relative to the 5′ and 3′ ends and also 5′ sequence differences. In order to determine if motif specificity is a quality of the motif and not the global sequence environment, for this experiment several sequences were produced holding these variables constant. As a starting point, the 1668 sequence was modified by converting the central C to T and the distal TG to CG, thereby creating a second CG in the resulting sequence 5000 (SEQ ID NO:130, Table 5). Then point nucleotide changes were made, progressing toward a 2006-like sequence, 5007 (SEQ ID NO:98). The ODN 5002 (SEQ ID NO:132) is most like 1668 with the exception that C's at positions 12 and 19 have been converted to T's. […]

For data set [1], the target named is T2, human TLR9 (Homo sapiens, UniProt Q9NR96, H530R/Q688R).
T2 construct: expressed in transfected cells
T2 sequence (Q9NR96 26-1032 H530R/Q688R): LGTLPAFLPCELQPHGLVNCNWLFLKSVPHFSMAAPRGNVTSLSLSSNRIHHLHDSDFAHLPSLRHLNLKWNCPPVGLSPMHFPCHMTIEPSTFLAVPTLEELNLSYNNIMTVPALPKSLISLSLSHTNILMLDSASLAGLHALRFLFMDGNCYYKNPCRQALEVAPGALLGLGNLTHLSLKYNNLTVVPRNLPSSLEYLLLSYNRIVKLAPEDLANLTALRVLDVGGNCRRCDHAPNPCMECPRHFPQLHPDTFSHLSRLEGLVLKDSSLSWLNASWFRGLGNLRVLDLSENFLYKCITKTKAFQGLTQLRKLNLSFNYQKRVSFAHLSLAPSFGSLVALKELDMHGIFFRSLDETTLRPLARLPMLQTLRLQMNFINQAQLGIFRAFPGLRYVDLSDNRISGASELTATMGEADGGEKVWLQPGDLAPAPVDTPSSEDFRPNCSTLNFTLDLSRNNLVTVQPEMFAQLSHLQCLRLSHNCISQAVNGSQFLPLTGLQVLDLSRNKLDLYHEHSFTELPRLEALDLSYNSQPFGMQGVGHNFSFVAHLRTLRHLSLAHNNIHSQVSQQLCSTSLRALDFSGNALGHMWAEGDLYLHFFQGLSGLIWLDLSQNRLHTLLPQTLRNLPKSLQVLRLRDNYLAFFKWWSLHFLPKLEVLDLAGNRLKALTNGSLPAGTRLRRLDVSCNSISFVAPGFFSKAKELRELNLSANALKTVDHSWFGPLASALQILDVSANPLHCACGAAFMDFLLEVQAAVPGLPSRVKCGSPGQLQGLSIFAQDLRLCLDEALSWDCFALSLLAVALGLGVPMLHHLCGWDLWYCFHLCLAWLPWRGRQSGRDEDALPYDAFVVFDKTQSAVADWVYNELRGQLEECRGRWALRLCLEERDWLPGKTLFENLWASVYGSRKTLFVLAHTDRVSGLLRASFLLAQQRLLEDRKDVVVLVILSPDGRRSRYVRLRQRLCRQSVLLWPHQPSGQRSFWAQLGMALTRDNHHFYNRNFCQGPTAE
Kind of data set: NF-κB-luciferase activation in 293 cells transfected with human TLR9 (293-hTLR9-luc). The note with it: 12 hours.

For data set [2], the target named is T2, human TLR9. The data set is described as above. The settings on record: ODN concentration of half-maximal activation; 293-hTLR9-luc cells, NF-κB-driven luciferase readout, 12 hours; read-out: 293-hTLR9 Kac.
From the text: Since NF-κB activation is central to the IL-1/TLR signal transduction pathway (Medzhitov R et al., Mol Cell 2:253-258 (1998); Muzio M et al., J Exp Med 187:2097-2101 (1998)), cells were transfected with hTLR9 or co-transfected with hTLR9 and a NF-κB-driven luciferase reporter construct. Human fibroblast 293 cells were transiently transfected with (FIG. 1A) hTLR9 and a six-times NF-κB-luciferase reporter plasmid (NF-κB-luc, kindly provided by Patrick Baeuerle, Munich, Germany) or (FIG. 1B) with hTLR9 alone. After stimulus with CpG-ODN (2006, 2 μM, […], SEQ ID NO:112), GpC-ODN (2006-GC, 2 μM, […], SEQ ID NO:118), LPS (100 ng/ml) or media, NF-κB activation by luciferase readout (8 h, FIG. 1A) or IL-8 production by ELISA (48 h, FIG. 1B) were monitored. Results are representative of three independent experiments.
To generate stable clones expressing human TLR9, murine TLR9, or either TLR9 with the NF-κB-luc reporter plasmid, 293 cells were transfected in 10 cm plates (2×10^6 cells/plate) with 16 μg of DNA and selected with 0.7 mg/ml G418 (PAA Laboratories GmbH, Cölbe, Germany). The clones were also screened for IL-8 production or NF-κB-luciferase activity after stimulation with ODN. Four different types of clones were generated. • 293-hTLR9-luc: expressing human TLR9 and 6-fold NF-κB-luciferase reporter • 293-mTLR9-luc: expressing murine TLR9 and 6-fold NF-κB-luciferase reporter • 293-hTLR9: expressing human TLR9 • 293-mTLR9: expressing murine TLR9 […]
Because stable TLR9 transfectants mirrored primary cell responsiveness to CpG-DNA (FIGS. 4 and 5), it was hypothesized that stable transfectants could potentially discern species-specific CpG-motifs through TLR9 receptors. Therefore 293-hTLR9-luc (expressing human TLR9 and 6-fold NF-κB-luc reporter), 293-mTLR9-luc (expressing murine TLR9 and 6-fold NF-κB-luc reporter), 293-hTLR9 (expressing human TLR9) and 293-mTLR9 (expressing murine TLR9) clones were tested for CpG-DNA motif responsiveness. […] Depicted are both NF-κB-driven luciferase and IL-8 production as readout. […] After lysis of the cells luciferase can be detected photometrically based on an enzymatic reaction by luciferase which creates photons. IL-8 production was monitored using enzyme-linked immunosorbent assay (ELISA). FIG. 11 depicts clones stimulated with ODN 2006 (filled circle), ODN 2006-GC (open circle), ODN 1668 (filled triangle) or ODN 1668-GC (open triangle) at indicated concentrations and NF-κB activation or IL-8 production were measured after 10 and 48 hours, respectively. Results shown in FIG. 11 are representative of three independent experiments. Strikingly, CpG-motif sequence specificity was conferred in a species-specific manner by TLR9. Additionally, the half-maximal concentration for either 2006 or 1668 appears nearly the same as those determined on primary cells (compare FIG. 10 and FIG. 11).
as §1

With “TCCATGACGTCCTTGATGTT (listed as DNA, chemistry not fully specified) [ODN 5009]”, the 293-mTLR9 responsiveness result with murine TLR9 (ACGTT versus ACGTC (5002 versus 5009)) is “completely destroyed 293-mTLR9 responsiveness”. The pEC50 with murine TLR9 was below 5.00.

With “TCCATGACGTCATTGATGTT (listed as DNA, chemistry not fully specified) [ODN 5010]”, the pEC50 with murine TLR9 was below 5.00.

For “5′-HHHHHHHHHHHHHHWGGGGG-3′ (chemistry not given here) [blocking ODN, H=A, T, C; W=A, T]”, the “blockade of CpG-ODN-induced NF-κB activation” value with human TLR9 [1] (293-hTLR9-luc cells, CpG-ODN 0.5 μM, increasing concentrations of blocking ODN) is “sensitive to non-CpG-ODN blockade”. Also, the “TNF-driven NF-κB signal” value with human TLR9 [1] (293-hTLR9-luc cells, TNF-α 10 ng/ml, increasing concentrations of blocking ODN) was “not diminished”.

Consider “TCCATGACGTTATTGATGTT (listed as DNA, chemistry not fully specified) [ODN 5008]”, for which the pEC50 in the data set with murine TLR9 is 7.40.

Take “TCCATGACGTTTTTGATGTT (listed as DNA, chemistry not fully specified) [ODN 5003]”: the pEC50 in the data set with human TLR9 [2] was 5.00.

Turning to `CO/C1=C\C(C)=C\[C@@H](C)[C@@H](O)[C@@H](C)C/C(C)=C/C=C/[C@H](OC)[C@@H]([C@@H](C)[C@@H](O)[C@H](C)[C@@]2(O)C[C@@H](O)[C@H](C)[C@@H](C(C)C)O2)OC1=O` [Bafilomycin A], the “CpG-ODN induction of NF-κB” value on human TLR9 [1] (293-hTLR9-luc cells preincubated 30 min with 10 nM, CpG-ODN 2006 0.5 μM) was “fully blocks”. Further, the “IL-1 and TNF induction of NF-κB” value on human TLR9 [1] (293-hTLR9-luc cells preincubated 30 min with 10 nM, IL-1 10 ng/ml or TNF-α 10 ng/ml) is “unaffected”.

Take “TCCATGACGTTCTTGATGTT (listed as DNA, chemistry not fully specified) [ODN 5002]”: the pEC50 in the data set with human TLR9 [2] was 5.15.
